≈ marks a conversion by molar mass, not a printed value. Where “and” joins values, the source holds several entries; their conditions need not be identical. Equal entries are not always repeated. Where two headings read alike, the source gives them in different places.
Columns and labels:
Trichomonas vaginalis [1] = assay: Trichomonas vaginalis assay of other divalent metal salts of bacitracin (MIC); type: cell-based
Method: (§1) All isolates were treated with either bacitracin or zinc bacitracin.
(§2) Prior to being diluted with the medium, the bacitracins were initially solubilized in water to 250 mg/ml. The zinc salt was solubilized in acidified water (60 μl HC1/ml). Duplicate plates of each isolate were prepared. one set of plates was exposed to an aerobic environment; and, the second set was exposed to an anaerobic environment. An Oxoid HP 11 anaerobic gas chamber and BR 38 gas generating kit were used to produce the anaerobic environment.
The procedure of Example IV was repeated, substituting bacitracin salts of the following metals for zinc bacitracin: nickel, cadmium, cobalt, manganese, copper and iron. The MLCs of the bacitracin salts were out of range. However, the MICs indicate that, with the exception of ferrous bacitracin, complexation with a divalent metal salt enhanced the activity of bacitracin.

Trichomonas vaginalis [2] = assay: Trichomonas vaginalis assay (MLC, aerobic and anaerobic); type: cell-based
Method: as §1, §2

Giardia lamblia = type: cell-based; conditions: Portland isolate; anaerobic; 24 hours; two lines of values
Method: A Portland isolate of G. lamblia was treated with bacitracin and zinc bacitracin according to the procedure of Example IV. An Oxoid HP 11 anaerobic gas chamber and BR 38 gas generating kit were used to produce an anaerobic environment. […] The parasites were incubated in the presence of the treating reagent for 2 4 hours. The viability of the parasites was based on morphology and motility.

Tritrichomonas gallinae = Tritrichomonas gallinae assay (MLC); type: cell-based; conditions: isolate GH85; anaerobic
Method: A single T. gallinae isolate was collected and treated with bacitracin or zinc bacitracin in accordance with the procedure of Example IV. Duplicate plates of the isolate were prepared. one plate was exposed to an aerobic environment. The second plate was exposed to an anaerobic environment.

E. histolvtica = conditions: fifty South African patients; 2.4 g daily for 5 days; cited from earlier work
T. foetus = conditions: cited from earlier work; for side effects: in vivo

Copper Bacitracin showed an MIC (Trichomonas vaginalis [1]; T. vaginalis isolate 1910) of 1250 µg/mL and an MIC (Trichomonas vaginalis [1]; T. vaginalis isolate UCH1) of 2500 µg/mL.
Cadmium Bacitracin gave an MIC (Trichomonas vaginalis [1]; T. vaginalis isolate 1910) of 150 µg/mL and an MIC (Trichomonas vaginalis [1]; T. vaginalis isolate UCH1) of 310 µg/mL.
With Cobalt Bacitracin the MIC (Trichomonas vaginalis [1]; T. vaginalis isolate 1910) was 1250 µg/mL and the MIC (Trichomonas vaginalis [1]; T. vaginalis isolate UCH1) was 1250 µg/mL.
In the case of `Cc1ncc([N+](=O)[O-])n1CCO` [Metronidazole], the MLC (Trichomonas vaginalis [2]; isolate 1031, metronidazole-sensitive, aerobic) is reported as 40 µg/mL (≈ 234 µM), the MLC (Trichomonas vaginalis [2]; isolate 1031, metronidazole-sensitive, anaerobic) is reported as 4 µg/mL (≈ 23.4 µM) and the MLC (Trichomonas vaginalis [2]; isolate 1043, metronidazole-sensitive, aerobic) is reported as 20 µg/mL (≈ 117 µM). For the same molecule, the MLC (Trichomonas vaginalis [2]; isolate 1043, metronidazole-sensitive, anaerobic) was < 1 µg/mL, the MLC (Trichomonas vaginalis [2]; isolate 1044, metronidazole-sensitive, aerobic) was < 10 µg/mL and the MLC (Trichomonas vaginalis [2]; isolate 1044, metronidazole-sensitive, anaerobic) was < 1 µg/mL. For the same molecule, the MLC (Trichomonas vaginalis [2]; isolate 1064, metronidazole-sensitive, anaerobic) was < 1 µg/mL, the MLC (Trichomonas vaginalis [2]; isolate 1065, metronidazole-sensitive, aerobic) was < 10 µg/mL and the MLC (Trichomonas vaginalis [2]; isolate 1065, metronidazole-sensitive, anaerobic) was < 1 µg/mL. The MLC (Trichomonas vaginalis [2]; isolate 1165, metronidazole-sensitive, aerobic) was 40 µg/mL (≈ 234 µM), the MLC (Trichomonas vaginalis [2]; isolate 1165, metronidazole-sensitive, anaerobic) was < 1 µg/mL and the MLC (Trichomonas vaginalis [2]; isolate 1910, metronidazole-sensitive, aerobic) was 40 µg/mL (≈ 234 µM). It also gave an MLC (Trichomonas vaginalis [2]; isolate 1910, metronidazole-sensitive, anaerobic) of 2 µg/mL (≈ 11.7 µM), an MLC (Trichomonas vaginalis [2]; isolate 6950, metronidazole-sensitive, aerobic) of 20 µg/mL (≈ 117 µM) and an MLC (Trichomonas vaginalis [2]; isolate 6950, metronidazole-sensitive, anaerobic) of 2 µg/mL (≈ 11.7 µM). The MLC (Trichomonas vaginalis [2]; isolate 89532.2, metronidazole-insensitive, aerobic) was 200 µg/mL (≈ 1170 µM), the MLC (Trichomonas vaginalis [2]; isolate 89532.2, metronidazole-insensitive, anaerobic) was 2 µg/mL (≈ 11.7 µM) and the MLC (Trichomonas vaginalis [2]; isolate 90576, metronidazole-insensitive, aerobic) was 80 µg/mL (≈ 467 µM). The MLC (Trichomonas vaginalis [2]; isolate 90576, metronidazole-insensitive, anaerobic) was 2 µg/mL (≈ 11.7 µM), the MLC (Trichomonas vaginalis [2]; isolate CDC85, metronidazole-insensitive, aerobic) was 200 µg/mL (≈ 1170 µM) and the MLC (Trichomonas vaginalis [2]; isolate CDC85, metronidazole-insensitive, anaerobic) was 20 µg/mL (≈ 117 µM). The MLC (Trichomonas vaginalis [2]; isolate IR78, metronidazole-insensitive, aerobic) was 200 µg/mL (≈ 1170 µM), the MLC (Trichomonas vaginalis [2]; isolate IR78, metronidazole-insensitive, anaerobic) was 4 µg/mL (≈ 23.4 µM) and the MLC (Trichomonas vaginalis [2]; isolate PHLS289, metronidazole-insensitive, aerobic) was 60 µg/mL (≈ 351 µM). The MLC (Trichomonas vaginalis [2]; isolate PHLS289, metronidazole-insensitive, anaerobic) was 8 µg/mL (≈ 46.7 µM), the MLC (Trichomonas vaginalis [2]; isolate STH-1, metronidazole-insensitive, aerobic) was 60 µg/mL (≈ 351 µM) and the MLC (Trichomonas vaginalis [2]; isolate STH-1, metronidazole-insensitive, anaerobic) was 8 µg/mL (≈ 46.7 µM). For the same molecule, the MLC (Trichomonas vaginalis [2]; isolate UCH-1, metronidazole-sensitive, aerobic) was 40 µg/mL (≈ 234 µM), the MLC (Trichomonas vaginalis [2]; isolate UCH-1, metronidazole-sensitive, anaerobic) was 4 µg/mL (≈ 23.4 µM) and the MLC (Trichomonas vaginalis [2]; isolate UCH-2, metronidazole-sensitive, aerobic) was < 10 µg/mL. For the same molecule, the MLC (Trichomonas vaginalis [2]; isolate UCH-2, metronidazole-sensitive, anaerobic) was 2 µg/mL (≈ 11.7 µM), the MLC (Trichomonas vaginalis [2]; isolate UCH-M1, metronidazole-sensitive, aerobic) was 20 µg/mL (≈ 117 µM) and the MLC (Trichomonas vaginalis [2]; isolate UCH-M1, metronidazole-sensitive, anaerobic) was 4 µg/mL (≈ 23.4 µM). The MLC (Trichomonas vaginalis [2]; isolate UOB-1, metronidazole-sensitive, aerobic) was 20 µg/mL (≈ 117 µM), the MLC (Trichomonas vaginalis [2]; isolate UOB-1, metronidazole-sensitive, anaerobic) was < 1 µg/mL and the “MLC (first of the two columns per drug)” value (Giardia lamblia) was < 1 µg/mL. For the same molecule, the “MLC (second of the two columns per drug)” value (Giardia lamblia) was 2 µg/mL and < 1 µg/mL, the MLC (Tritrichomonas gallinae) was 2 µg/mL (≈ 11.7 µM) and the “treatment failure with persistent disease” value (E. histolvtica) was 55%.
In the case of `Cc1ncc([N+](=O)[O-])n1C` [dimetridazole], the side effects (T. foetus; iv) is given as “respiratory difficulty, ataxia and lung collapse”, the side effects (T. foetus; po) is given as “rumen stasis and anorexia” and the effectiveness (T. foetus; multiple oral doses) is given as “moderately effective”. The effectiveness (T. foetus; single intravenous administration) was “moderately effective”.
For Ferrous Bacitracin, the MIC (Trichomonas vaginalis [1]; T. vaginalis isolate 1910) was > 10000 µg/mL and the MIC (Trichomonas vaginalis [1]; T. vaginalis isolate UCH1) was > 10000 µg/mL.
In the case of Manganese Bacitracin, the MIC (Trichomonas vaginalis [1]; T. vaginalis isolate 1910) is reported as 1260 µg/mL and the MIC (Trichomonas vaginalis [1]; T. vaginalis isolate UCH1) is reported as 150 µg/mL.
In the case of Nickel Bacitracin, the MIC (Trichomonas vaginalis [1]; T. vaginalis isolate 1910) is reported as 2500 µg/mL and the MIC (Trichomonas vaginalis [1]; T. vaginalis isolate UCH1) is reported as 1250 µg/mL.
